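All cell lines were grown in 96-well plates and treated with compound for 48 hours. At the GI50, growth is halved.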 Activity calls are given as the source filed them. No stated cut-off is given here; in the data, active = GI50 up to about 1.1 µM and inactive = higher.
Experiments:
Assay in all cases: NCI tumour cell line growth inhibition, 48 h
SW-620 = tested on: SW-620
SN12C = tested on: SN12C
SK-MEL-2 = tested on: SK-MEL-2
NCI-H460 = tested on: NCI-H460
MDA-MB-231 = tested on: MDA-MB-231
LOX IMVI = tested on: LOX IMVI
786-0 = tested on: 786-0
UO-31 = tested on: UO-31
SK-OV-3 = tested on: SK-OV-3
NCI-H23 = tested on: NCI-H23
DU-145 = tested on: DU-145
K562 = tested on: K562
Malme-3M = tested on: Malme-3M
ACHN = tested on: ACHN
T47D = tested on: T47D
NCI-H522 = tested on: NCI-H522
A549 = tested on: A549
HOP-92 = tested on: HOP-92
SF-539 = tested on: SF-539
SK-MEL-5 = tested on: SK-MEL-5

Structure (SMILES)	GI50 (SW-620)	GI50 (SN12C)	GI50 (SK-MEL-2)	GI50 (NCI-H460)	GI50 (MDA-MB-231)	GI50 (LOX IMVI)	GI50 (786-0)	GI50 (UO-31)	GI50 (SK-OV-3)	GI50 (NCI-H23)	GI50 (DU-145)	GI50 (K562)	GI50 (Malme-3M)	GI50 (ACHN)	GI50 (T47D)	GI50 (NCI-H522)	GI50 (A549)	GI50 (HOP-92)	GI50 (SF-539)	GI50 (SK-MEL-5)
C[C@H](c1ccccc1)n1c(N)c(-c2nc3ccccc3s2)c2ccc([N+](=O)[O-])cc2c1=O	4.14 µM (inactive)	8.32 µM (inactive)	2.94 µM (inactive)	4.09 µM (inactive)	3.89 µM (inactive)	4.46 µM (inactive)	9.29 µM (inactive)	3.83 µM (inactive)	8.99 µM (inactive)	1.87 µM (inactive)	2.31 µM (inactive)	1.23 µM (inactive)	12.9 µM (inactive)	10.1 µM (inactive)	1.58 µM (inactive)	1.32 µM (inactive)	9.98 µM (inactive)	1.59 µM (inactive)	16.9 µM (inactive)	4.8 µM (inactive)
CCOC(=O)[C@@H]1[C@@H]2NC(=O)N[C@@]1(C)Oc1ccccc12	> 100 µM (inactive)	> 100 µM (inactive)	> 100 µM (inactive)	> 100 µM (inactive)	> 100 µM (inactive)	> 100 µM (inactive)	> 100 µM (inactive)	> 100 µM (inactive)	> 100 µM (inactive)	> 100 µM (inactive)	> 100 µM (inactive)	> 100 µM (inactive)	> 100 µM (inactive)	> 100 µM (inactive)	> 100 µM (inactive)	> 100 µM (inactive)	–	> 100 µM (inactive)	> 100 µM (inactive)	> 100 µM (inactive)
BC(=O)NC(CC(C)C)C(=O)NCC(=O)NC1c2ccsc2C(=O)C1O.CN(C)C (stereo not drawn)	> 100 µM (inactive)	> 100 µM (inactive)	> 100 µM (inactive)	31.6 µM (inactive)	> 100 µM (inactive)	> 100 µM (inactive)	> 100 µM (inactive)	> 100 µM (inactive)	> 100 µM (inactive)	> 100 µM (inactive)	> 100 µM (inactive)	31.6 µM (inactive)	> 100 µM (inactive)	> 100 µM (inactive)	> 100 µM (inactive)	> 100 µM (inactive)	> 100 µM (inactive)	> 100 µM (inactive)	> 100 µM (inactive)	> 100 µM (inactive)
NCCSCC(N)C(=O)O (stereo not drawn)	46.8 µM (inactive)	> 497 µM (inactive)	> 497 µM (inactive)	60.1 µM (inactive)	> 100 µM (inactive)	> 497 µM (inactive)	83.4 µM (inactive)	85.5 µM (inactive)	> 497 µM (inactive)	> 497 µM (inactive)	> 90.6 µM (inactive)	37.2 µM (inactive)	> 66.2 µM (inactive)	65.9 µM (inactive)	> 83 µM (inactive)	> 63 µM (inactive)	47.6 µM (inactive)	> 497 µM (inactive)	> 497 µM (inactive)	> 63.7 µM (inactive)
O=C(O)CCC1(C(=O)O)CCC(=O)c2ccccc21 (stereo not drawn)	> 100 µM (inactive)	> 100 µM (inactive)	> 100 µM (inactive)	> 100 µM (inactive)	> 100 µM (inactive)	> 100 µM (inactive)	> 100 µM (inactive)	> 100 µM (inactive)	> 100 µM (inactive)	> 100 µM (inactive)	> 100 µM (inactive)	> 100 µM (inactive)	> 100 µM (inactive)	> 100 µM (inactive)	> 100 µM (inactive)	> 100 µM (inactive)	> 100 µM (inactive)	> 100 µM (inactive)	> 100 µM (inactive)	> 100 µM (inactive)
COc1cc2cc(C(=O)N3CC(CCl)c4c3cc(NC(=O)C(C)Nc3c([N+](=O)[O-])cc(C(=O)NCCN(C)C)cc3[N+](=O)[O-])c3ccccc43)[nH]c2c(OC)c1OC (stereo not drawn)	0.117 µM (active)	0.105 µM (active)	0.0675 µM (active)	0.0157 µM (active)	0.18 µM (active)	0.0478 µM (active)	0.0204 µM (active)	0.451 µM (active)	0.21 µM (active)	< 0.01 µM (active)	< 0.0182 µM (active)	0.0363 µM (active)	0.129 µM (active)	0.032 µM (active)	0.046 µM (active)	0.0172 µM (active)	0.0682 µM (active)	0.0285 µM (active)	0.0331 µM (active)	0.104 µM (active)
O=C(/C=C/c1cccc(Br)c1)c1ccc(Cl)cc1	2.95 µM (inactive)	17.2 µM (inactive)	15.3 µM (inactive)	16.9 µM (inactive)	18 µM (inactive)	12.6 µM (inactive)	14.3 µM (inactive)	15.5 µM (inactive)	21.1 µM (inactive)	17 µM (inactive)	14.8 µM (inactive)	6.58 µM (inactive)	14 µM (inactive)	16.8 µM (inactive)	12.8 µM (inactive)	13.6 µM (inactive)	16.8 µM (inactive)	15 µM (inactive)	16.6 µM (inactive)	14.2 µM (inactive)
CCN(CC)CCC1CCCCN1CC(=O)N1c2cc(Cl)ccc2NC(=O)CC1C (stereo not drawn)	–	> 100 µM (inactive)	> 100 µM (inactive)	> 100 µM (inactive)	> 100 µM (inactive)	> 100 µM (inactive)	> 100 µM (inactive)	> 100 µM (inactive)	> 100 µM (inactive)	> 100 µM (inactive)	> 100 µM (inactive)	> 100 µM (inactive)	> 100 µM (inactive)	> 100 µM (inactive)	> 100 µM (inactive)	> 100 µM (inactive)	> 100 µM (inactive)	> 100 µM (inactive)	> 100 µM (inactive)	> 100 µM (inactive)
Cn1c(=O)nc2n(CCO)c(-c3ccccc3)c(-c3ccccc3)nc-2c1=O	> 100 µM (inactive)	> 100 µM (inactive)	> 100 µM (inactive)	39.1 µM (inactive)	> 100 µM (inactive)	> 100 µM (inactive)	> 100 µM (inactive)	> 100 µM (inactive)	> 100 µM (inactive)	> 100 µM (inactive)	> 100 µM (inactive)	> 100 µM (inactive)	> 100 µM (inactive)	> 100 µM (inactive)	> 100 µM (inactive)	> 100 µM (inactive)	> 100 µM (inactive)	> 100 µM (inactive)	> 100 µM (inactive)	> 100 µM (inactive)
O=C(Nc1ccc(Cl)cc1)NS(=O)(=O)c1coc2ccccc2c1=O	> 10 µM (inactive)	> 10 µM (inactive)	> 10 µM (inactive)	> 10 µM (inactive)	> 10 µM (inactive)	> 10 µM (inactive)	> 10 µM (inactive)	–	> 10 µM (inactive)	> 10 µM (inactive)	> 10 µM (inactive)	–	> 10 µM (inactive)	> 10 µM (inactive)	> 10 µM (inactive)	> 10 µM (inactive)	> 10 µM (inactive)	> 10 µM (inactive)	> 10 µM (inactive)	> 10 µM (inactive)
COC(=O)C(Cc1c(C2Nc3ccccc3C2CC(NC(=O)CNC(C)=O)C(=O)OC)[nH]c2ccccc12)NC(=O)CNC(C)=O (stereo not drawn)	> 100 µM (inactive)	> 100 µM (inactive)	> 86.9 µM (inactive)	> 100 µM (inactive)	> 100 µM (inactive)	> 100 µM (inactive)	> 100 µM (inactive)	> 100 µM (inactive)	> 100 µM (inactive)	> 100 µM (inactive)	> 100 µM (inactive)	> 100 µM (inactive)	> 100 µM (inactive)	> 100 µM (inactive)	> 100 µM (inactive)	> 100 µM (inactive)	> 100 µM (inactive)	> 100 µM (inactive)	> 100 µM (inactive)	> 100 µM (inactive)
O=C(N/N=C\C=C\c1ccc([N+](=O)[O-])o1)C(=O)N/N=C\C=C\c1ccc([N+](=O)[O-])o1	24.5 µM (inactive)	> 100 µM (inactive)	> 100 µM (inactive)	> 100 µM (inactive)	> 100 µM (inactive)	4.94 µM (inactive)	> 100 µM (inactive)	> 100 µM (inactive)	> 100 µM (inactive)	> 100 µM (inactive)	> 100 µM (inactive)	> 100 µM (inactive)	> 100 µM (inactive)	> 100 µM (inactive)	36.2 µM (inactive)	> 100 µM (inactive)	> 100 µM (inactive)	> 100 µM (inactive)	3.19 µM (inactive)	> 100 µM (inactive)
COC(=O)C(NC(=O)C12CCC(C)(C(=O)O1)C2(C)C)c1cc(C(C)(C)C)c(O)c(C(C)(C)C)c1 (stereo not drawn)	77.3 µM (inactive)	–	> 100 µM (inactive)	–	> 100 µM (inactive)	> 100 µM (inactive)	> 100 µM (inactive)	95.9 µM (inactive)	> 100 µM (inactive)	> 100 µM (inactive)	> 100 µM (inactive)	64 µM (inactive)	> 100 µM (inactive)	> 100 µM (inactive)	81.7 µM (inactive)	> 100 µM (inactive)	> 100 µM (inactive)	> 100 µM (inactive)	> 100 µM (inactive)	21.7 µM (inactive)
C=C(Br)COc1ccc2c(C)cc(=O)oc2c1	> 100 µM (inactive)	> 100 µM (inactive)	> 100 µM (inactive)	88.5 µM (inactive)	0.951 µM (active)	> 100 µM (inactive)	> 100 µM (inactive)	64.1 µM (inactive)	–	90.4 µM (inactive)	> 100 µM (inactive)	49 µM (inactive)	> 100 µM (inactive)	60.5 µM (inactive)	20.2 µM (inactive)	42.6 µM (inactive)	61.5 µM (inactive)	12.5 µM (inactive)	67 µM (inactive)	14.6 µM (inactive)
